Reference: publication PMC4224572, “Peptidomimetic inhibitors of N-myristoyltransferase from human malaria and leishmaniasis parasites” (Organic & Biomolecular Chemistry, 2014)
Square brackets hold non-standard residues; d marks the D form. Peptide text beside a SMILES is read from it. Aun = NCCCCCCCCCCC(=O)O; Aoc = NCCCCCCCC(=O)O

Assays:
PvNMT = biological target: T1, PvNMT (Plasmodium vivax, UniProt A5K1A2); test: Fluorogenic NMT inhibition assay, PvNMT; format: biochemical; details: recombinant enzyme; mean of duplicate or triplicate experiments
T1 sequence (A5K1A2 1-410): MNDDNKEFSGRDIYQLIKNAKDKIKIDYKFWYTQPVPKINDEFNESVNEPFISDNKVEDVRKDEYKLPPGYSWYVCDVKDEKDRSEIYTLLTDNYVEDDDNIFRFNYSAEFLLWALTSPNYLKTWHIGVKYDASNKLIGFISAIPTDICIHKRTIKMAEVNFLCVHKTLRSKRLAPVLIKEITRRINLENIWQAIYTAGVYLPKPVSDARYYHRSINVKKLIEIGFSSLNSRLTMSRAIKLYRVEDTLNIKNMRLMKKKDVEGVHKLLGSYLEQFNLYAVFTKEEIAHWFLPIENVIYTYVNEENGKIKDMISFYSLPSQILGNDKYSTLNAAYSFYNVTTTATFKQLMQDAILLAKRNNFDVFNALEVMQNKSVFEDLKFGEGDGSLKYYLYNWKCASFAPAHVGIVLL
Excerpt: (§1) 2-Methylimidazolyl analogues were synthesized building on the hypothesis that 2-methylimidazole (pK a ∼ 7.9)[18] is a reasonable mimetic for N-terminal Gly in the peptide substrate (pK a ∼ 8.0).[19] To cover a range of basicity, imidazolyl (pK a ∼ 7.0) and amine analogues (pK a ∼ 10.0) were also synthesized, each exploring a range of chain lengths (n) (Table 1). To probe versatility at the C-terminus, primary amides, carboxylic acids, 2-cyclohexylethyl and 2-(1-cyclohexenyl)ethyl amides were incorporated. Using a previously reported fluorogenic assay,[20] inhibitors were tested against the parasitic enzymes and HsNMT1 in order to explore their selectivity against a relevant host enzyme. […] Further reduction of the chain length (11 and 12, n = 8 and 7, respectively) led to loss of detectable activity against Plasmodium NMTs and significant loss of activity against LdNMT and HsNMT1.

PfNMT = biological target: T2, PfNMT (Plasmodium falciparum, UniProt Q9U419); test: Fluorogenic NMT inhibition assay, PfNMT; format: biochemical; details: recombinant enzyme; mean of duplicate or triplicate experiments
T2 sequence (Q9U419 1-410): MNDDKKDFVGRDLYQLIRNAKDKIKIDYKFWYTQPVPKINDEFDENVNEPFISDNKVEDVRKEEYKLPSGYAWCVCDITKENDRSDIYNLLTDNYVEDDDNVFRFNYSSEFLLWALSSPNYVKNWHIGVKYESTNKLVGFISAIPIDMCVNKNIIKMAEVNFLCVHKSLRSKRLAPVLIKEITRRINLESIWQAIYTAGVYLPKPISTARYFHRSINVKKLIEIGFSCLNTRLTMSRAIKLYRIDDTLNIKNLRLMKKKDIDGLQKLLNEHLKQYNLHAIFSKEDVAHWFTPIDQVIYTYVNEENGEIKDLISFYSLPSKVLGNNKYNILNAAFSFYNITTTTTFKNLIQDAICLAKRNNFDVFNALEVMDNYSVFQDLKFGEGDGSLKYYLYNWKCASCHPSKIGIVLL
Excerpt: as §1

LdNMT = test: Fluorogenic NMT inhibition assay, LdNMT; format: biochemical, L. donovani; details: for IC50: recombinant enzyme, mean of duplicate or triplicate experiments
Excerpt: as §1

HsNMT1 = biological target: T3, HsNMT1 (Homo sapiens, UniProt P30419); test: Fluorogenic NMT inhibition assay, HsNMT1; format: biochemical, H. sapiens; details: for IC50: mean of duplicate or triplicate experiments
T3 sequence (P30419 1-496): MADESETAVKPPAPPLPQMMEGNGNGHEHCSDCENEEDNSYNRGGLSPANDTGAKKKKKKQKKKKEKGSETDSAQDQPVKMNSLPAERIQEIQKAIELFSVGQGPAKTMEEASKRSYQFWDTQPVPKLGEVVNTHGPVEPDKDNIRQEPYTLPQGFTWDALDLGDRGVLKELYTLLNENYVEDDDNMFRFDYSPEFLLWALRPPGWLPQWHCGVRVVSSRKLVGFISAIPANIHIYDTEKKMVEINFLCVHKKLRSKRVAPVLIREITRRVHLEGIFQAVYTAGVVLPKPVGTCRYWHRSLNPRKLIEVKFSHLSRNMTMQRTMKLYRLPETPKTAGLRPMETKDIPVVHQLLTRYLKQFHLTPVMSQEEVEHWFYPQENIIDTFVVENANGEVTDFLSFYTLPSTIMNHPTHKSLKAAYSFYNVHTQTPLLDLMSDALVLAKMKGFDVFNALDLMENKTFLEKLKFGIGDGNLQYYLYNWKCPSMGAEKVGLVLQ
Excerpt: 2-Methylimidazolyl analogues were synthesized building on the hypothesis that 2-methylimidazole (pK a ∼ 7.9)[18] is a reasonable mimetic for N-terminal Gly in the peptide substrate (pK a ∼ 8.0).[19] To cover a range of basicity, imidazolyl (pK a ∼ 7.0) and amine analogues (pK a ∼ 10.0) were also synthesized, each exploring a range of chain lengths (n) (Table 1). To probe versatility at the C-terminus, primary amides, carboxylic acids, 2-cyclohexylethyl and 2-(1-cyclohexenyl)ethyl amides were incorporated. Using a previously reported fluorogenic assay,[20] inhibitors were tested against the parasitic enzymes and HsNMT1 in order to explore their selectivity against a relevant host enzyme.

Leishmania NMT = test: Substrate characteristics in Leishmania NMT; format: biochemical; details: for Km: read-out: KM as substrate; for substrate activity: compound 10 tested up to 40 μM
Experimental: Unexpectedly, the electron maps indicated a mixture of ligand structures such that ∼20% of the electron density represents a N-myristoylated 10 product complex with the CoA by-product in LmNMT (Fig. 2D). This is the only structural evidence for a product complex in any N-myristoyltransferase, and captures and supports the proposed mechanism of action of NMT just prior to regeneration of the active enzyme. Kinetic experiments were performed to study 10 both as a potential substrate and as an NMT inhibitor. […] The N-myristoylation of 10 observed above therefore presumably occurs within the crystal where all reagents are present at high effective concentrations, and turnover is blocked by limited egress of products.
To probe the degree to which 10 acts as a true peptidomimetic, we investigated the potential to switch from inhibitor to a peptidomimetic substrate. […] In native NMT substrates, N-terminal Gly is preferred to the exclusion of all other residues, with relatively non-sterically demanding residues such as alanine. […]
[Substrate] (µM) [S b[Substrate] (µM) tt ]
Hs pp60src(2-9) Compound 10 Compound 27 Compound 28
Figure S4: Substrate characteristics of H. sapiens p60src(2-16), compound 10 and modified
inhibitors 27 and 28 in Leishmania NMT.

[1] = hydroxyl substituted for the N-terminal amine

Compound | IC50 (PvNMT) | IC50 (PfNMT) | IC50 (LdNMT) | IC50 (HsNMT1) | loss in activity, Human NMT (HsNMT1; [1]) | Vmax as substrate (Leishmania NMT; Leishmania NMT) | Km (Leishmania NMT; Leishmania NMT) | substrate activity (Leishmania NMT) | KM as substrate (Leishmania NMT; Leishmania NMT) | loss in activity, Leishmania NMT (LdNMT; [1])
NCCCC[C@H](NC(=O)[C@H](CO)NC(=O)CCCCCCCCCCn1ccnc1)C(=O)NCCC1=CCCCC1 [Compound 17] | > 100 µM | > 100 µM | > 100 µM | > 100 µM |  |  |  |  |  | 
NCCCC[C@H](NC(=O)[C@H](CO)NC(=O)CCCCCCCCCn1ccnc1)C(=O)NCCC1=CCCCC1 [Compound 18] | > 100 µM | > 100 µM | > 100 µM | > 100 µM |  |  |  |  |  | 
Cc1nccn1CCCCCCCCCCC(=O)N[C@@H](CO)C(=O)N[C@@H](CCCCN)C(=O)NCCC1=CCCCC1 [Compound 19] | > 100 µM | > 100 µM | > 100 µM | > 100 µM |  |  |  |  |  | 
NCCCC[C@H](NC(=O)[C@H](CO)NC(=O)CCCCCCNC(=O)CN)C(=O)NCCC1CCCCC1 [Compound 27] |  |  |  |  |  | 6596.4 ± 281.4 RFU.s-1 | 1.3 µM | substrate |  | 
C[C@H](N)C(=O)NCCCCCCC(=O)N[C@@H](CO)C(=O)N[C@@H](CCCCN)C(=O)NCCC1CCCCC1 [Compound 28] |  |  |  |  |  | Not measurable |  | no detectable substrate activity | Not measurable | 
GSNKSKPK-NH2 [reference compound] |  |  |  |  |  | 113616.7 ± 3962.0 RFU.s-1 | 22.6 µM |  |  | 

Continued, in another order:

IC50 (PvNMT) | IC50 (PfNMT) | IC50 (LdNMT) | IC50 (HsNMT1) | loss in activity, Human NMT (HsNMT1; [1]) | Compound | Vmax as substrate (Leishmania NMT; Leishmania NMT) | Km (Leishmania NMT; Leishmania NMT) | substrate activity (Leishmania NMT) | KM as substrate (Leishmania NMT; Leishmania NMT) | loss in activity, Leishmania NMT (LdNMT; [1])
> 100 µM | > 100 µM |  | > 100 µM |  | Cc1nccn1CCCCCCCCCC(=O)N[C@@H](CO)C(=O)N[C@@H](CCCCN)C(=O)NCCC1=CCCCC1 [Compound 20] |  |  |  |  | 
> 100 µM | > 100 µM | 13.3 ± 2 µM | 5.4 ± 0.41 µM |  | NCCCCCCCCCCC(=O)N[C@@H](CO)C(=O)N[C@@H](CCCCN)C(N)=O [Compound 21] (H-[Aun]-Ser-Lys-NH2) |  |  |  |  | 
22.9 ± 3.5 µM | > 100 µM | 1.36 ± 0.2 µM | 1.36 ± 0.29 µM |  | NCCCCCCCCCC(=O)N[C@@H](CO)C(=O)N[C@@H](CCCCN)C(N)=O [Compound 22] |  |  |  |  | 
> 100 µM | > 100 µM | 27.1 ± 2.6 µM | 33.1 ± 2.5 µM |  | NCCCCCCCCC(=O)N[C@@H](CO)C(=O)N[C@@H](CCCCN)C(N)=O [Compound 23] |  |  |  |  | 
> 100 µM | > 100 µM | 61.9 ± 4.7 µM | > 100 µM |  | NCCCCCCCC(=O)N[C@@H](CO)C(=O)N[C@@H](CCCCN)C(N)=O [Compound 24] (H-[Aoc]-Ser-Lys-NH2) |  |  |  |  | 
> 100 µM | > 100 µM | 86.7 ± 10.4 µM | 39.2 ± 2 µM |  | NCCCCCCCCCCC(=O)N[C@@H](CO)C(=O)N[C@@H](CCCCN)C(=O)O [Compound 25] (H-[Aun]-Ser-Lys-OH) |  |  |  |  | 
> 100 µM | > 100 µM | > 100 µM | 92.1 ± 17.6 µM |  | NCCCCCCCCCC(=O)N[C@@H](CO)C(=O)N[C@@H](CCCCN)C(=O)O [Compound 26] |  |  |  |  | 
 |  |  |  | 1000 folds | NCCCC[C@H](NC(=O)[C@H](CO)NC(=O)CCCCCCCCCO)C(=O)NCCC1CCCCC1 [Compound 46] |  |  |  |  | > 100 folds
